Experimental data as given in publication PMC5874699, “Antimicrobial and Antibiofilm Activity of UP-5, an Ultrashort Antimicrobial Peptide Designed Using Only Arginine and Biphenylalanine” (Pharmaceuticals, 2018).
Read-outs that look alike come from different tables or passages of the source. Square brackets hold non-standard residues; d marks the D form. Peptide text beside a SMILES is read from it. Bip = N[C@@H](Cc1ccc(-c2ccccc2)cc1)C(=O)O

How the values were obtained:
[1] = tested on: Staphylococcus aureus (ATCC 29213); type: cell-based; conditions: ATCC 29213, 24 h
Source text: (§1) All bacterial susceptibility, biofilm, and synergistic assays of peptides, antibiotics, and peptides-antibiotics combinations used bacterial strains obtained from the American Type Tissue Culture Collection (ATCC, Manassas, VA, USA) that states the mechanism of resistance for each strain according to ATCC number. Gram-positive bacteria were represented by five strains, the wild type strain Staphylococcus aureus (ATCC 29213) and methicillin-resistant S. aureus (MRSA) (ATCC 33591) in addition to clinically isolated strains S. aureus (ATCC BAA-41& 43300) and Enterococcus faecalis (ATCC BAA-2316). The Gram-negative bacteria strains were represented by wild type strains of Escherichia coli (ATCC 25922 & 35218) and Pseudomonas aeruginosa (ATCC 27853) as well as the clinically isolated multidrug-resistant strain P. aeruginosa (ATCC BAA-2114). The bacteria were cultured onto Muller Hinton Agar (Scharlab, S.L, Barcelona, Spain). Mueller Hinton Broth (Oxoid Ltd., Basingstoke, UK) was used to prepare all bacterial suspensions and to dissolve the peptides and the antibiotics. The assay was performed in sterile 96-well polypropylene microtiter plates.
(§2) All bacterial susceptibility assays were conducted according to the microbroth dilution method outlined by the Clinical and Laboratory Standards Institute (CLSI) guidelines.
(§3) Briefly, pre-sterilized MHB was used as a growth medium for organisms obtained from stock media with glycerol. Bacterial cells were grown overnight in MHB and diluted to 10^6 CFU/mL in the same medium prior to use. For peptide, serial concentrations in the range of 0.5–100 μM were prepared. Then, 50 μL of each peptide concentration and 50 µL of diluted bacterial suspension were added to each well of a 96-well microtiter plate. Peptide solutions were prepared by dissolving the peptide in sterile MHB. Then, the plates were incubated overnight in a humidified atmosphere, and at 37 °C. Bacterial growth was determined by measuring the optical density (OD) at λ = 600 nm using an ELISA plate reader (Epoch, BioTek, Winooski, VT, USA) and the minimum inhibitory concentration (MIC) was determined.
(§4) As described in the previous section, the MIC and MBC values of antibiotics employed in this study were determined against subjected bacterial strains via preparing different concentrations of each antibiotic.

[2] = tested on: P. aeruginosa (ATCC BAA-2114); type: cell-based, Pseudomonas aeruginosa; conditions: ATCC BAA-2114, 24 h
Source text: as §1, §2, §3, §4

human erythrocytes = type: cell-based
Protocol: Two milliliters of human blood were placed into a 50 mL centrifuge tube and centrifuged (3000× g). The supernatant was discarded, the cell pellet re-suspended in 48 mL of PBS, and centrifuged as above; this step was repeated twice. Finally, 2 mL of cell pellet were re-suspended in a sterile tube containing 48 mL PBS to reach a final concentration of 4% RBC. […] Positive controls were prepared by adding 5 µL of 0.1% (Triton 100X) to 2 mL of 4% RBC suspension and negative controls were prepared by adding 2 mL of 4% RBC suspension only. All preparations were incubated for 60 min at 37 °C. Next, the tubes were gently vortexed and 1 mL of each sample were removed and placed into sterilized eppendorf tubes and then centrifuged (3000× g). Then, 200 µL of each supernatant was placed into a 96 well-plate. Absorbance was measured at λ = 450 nm with the aid of an ELISA reader. The percentage hemolysis was calculated according to the following equation:(2) % Hemolysis=A−AO/AX−AO×100 where A is the optical density at 450 nm (OD450) of the peptide solution, AO is the OD450 of the negative control (0.9% NaCl) and AX is the OD450 of the positive control (0.1% Triton 10X).

MIC Value [1]: 10 µM | MIC Value [2]: 55 µM
Structure (SMILES): N=C(N)NCCC[C@H](NC(=O)[C@H](Cc1ccc(-c2ccccc2)cc1)NC(=O)[C@H](CCCNC(=N)N)NC(=O)[C@H](Cc1ccc(-c2ccccc2)cc1)NC(=O)[C@@H](N)CCCNC(=N)N)C(=O)O [UP-5] (H-R[Bip]R[Bip]R-OH)
MBC Value [1]: 10 µM | MBC Value [2]: 55 µM | Hemolysis (%) (human erythrocytes; 40 µM): 0.09% | Hemolysis (%) (human erythrocytes; 60 µM): 1.01% | Hemolysis (%) (human erythrocytes; 80 µM): 1.04% | Hemolysis (%) (human erythrocytes; 150 µM): 3.0% | Hemolysis (%) (human erythrocytes; 175 µM): 3.04%
